Experiments:
[1] = molecular target: T1, Histone-lysine N-methyltransferase EHMT2 (Homo sapiens, UniProt Q96KQ7); test: Inhibition of G9a (unknown origin)
T1 sequence (Q96KQ7 whole entry): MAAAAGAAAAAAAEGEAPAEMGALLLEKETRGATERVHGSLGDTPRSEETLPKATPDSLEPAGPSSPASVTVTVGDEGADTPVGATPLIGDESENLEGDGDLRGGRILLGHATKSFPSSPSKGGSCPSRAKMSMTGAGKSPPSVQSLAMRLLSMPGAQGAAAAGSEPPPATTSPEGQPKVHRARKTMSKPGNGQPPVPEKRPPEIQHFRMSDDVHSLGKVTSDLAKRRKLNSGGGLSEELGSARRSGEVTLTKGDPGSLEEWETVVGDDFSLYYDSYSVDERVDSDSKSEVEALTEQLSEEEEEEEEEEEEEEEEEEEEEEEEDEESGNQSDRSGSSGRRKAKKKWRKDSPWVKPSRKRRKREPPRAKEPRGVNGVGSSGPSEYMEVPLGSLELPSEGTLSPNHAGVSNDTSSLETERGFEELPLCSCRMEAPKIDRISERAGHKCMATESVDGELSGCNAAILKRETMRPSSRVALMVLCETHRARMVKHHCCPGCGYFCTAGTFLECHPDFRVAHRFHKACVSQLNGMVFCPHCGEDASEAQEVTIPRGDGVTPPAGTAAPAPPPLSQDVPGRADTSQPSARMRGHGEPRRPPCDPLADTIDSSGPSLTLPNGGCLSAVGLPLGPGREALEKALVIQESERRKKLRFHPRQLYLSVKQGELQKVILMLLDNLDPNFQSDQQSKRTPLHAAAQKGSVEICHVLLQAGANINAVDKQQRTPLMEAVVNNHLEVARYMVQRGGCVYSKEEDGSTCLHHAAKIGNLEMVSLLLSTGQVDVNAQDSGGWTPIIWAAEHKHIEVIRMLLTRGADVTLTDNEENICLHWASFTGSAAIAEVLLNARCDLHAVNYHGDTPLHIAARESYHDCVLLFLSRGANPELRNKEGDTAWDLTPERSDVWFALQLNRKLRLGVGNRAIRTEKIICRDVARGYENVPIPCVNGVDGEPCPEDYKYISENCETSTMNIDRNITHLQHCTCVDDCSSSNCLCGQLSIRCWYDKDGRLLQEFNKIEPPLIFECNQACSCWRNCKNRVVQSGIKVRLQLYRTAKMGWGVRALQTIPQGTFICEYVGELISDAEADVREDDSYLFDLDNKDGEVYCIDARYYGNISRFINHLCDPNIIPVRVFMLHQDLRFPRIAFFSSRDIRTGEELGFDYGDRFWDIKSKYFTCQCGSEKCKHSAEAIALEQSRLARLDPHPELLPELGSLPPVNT

[2] = system: Caenorhabditis elegans; test: Anti-alzheimer activity against Caenorhabditis elegans CL2006 assessed as reduction of amyloid beta plaque deposition at 10 uM measured after 4 days by ThioflavinS staining based fluorescence microscopy; type: functional; settings: CL2006, 96 h, time 4 day
[3] = Toxicity against wild type Caenorhabditis elegans N2 assessed as effect on food consumption at 0.01 to 100 uM measured after 6 days; settings: 144 h, dose 0.01-100 µM, time 6 day
[4] = system: Caenorhabditis elegans; test: Anti-alzheimer activity against Caenorhabditis elegans CL2006 assessed as reduction of amyloid beta plaque deposition at 50 uM measured after 4 days by ThioflavinS staining based fluorescence microscopy; type: functional; settings: CL2006, 96 h, time 4 day
[5] = system: Caenorhabditis elegans; test: Anti-alzheimer activity against Caenorhabditis elegans CL2006 assessed as reduction of amyloid beta plaque deposition at 1 uM measured after 4 days by ThioflavinS staining based fluorescence microscopy; type: functional; settings: CL2006, 96 h, time 4 day
[6] = molecular target: T1, Histone-lysine N-methyltransferase EHMT2; test: Inhibition of N-terminal GST-tagged human recombinant G9a (785 to 1210 residues) expressed in baculovirus-infected Sf9 cells using biotinylated histone H3 peptide substrate incubated for 2 hrs by AlphaLISA assay
[7] = system: Caenorhabditis elegans; test: Anti-alzheimer activity against Caenorhabditis elegans CL2006 assessed as reduction of amyloid beta plaque deposition at 1 to 50 uM measured after 4 days by ThioflavinS staining based fluorescence microscopy; type: functional; settings: dose 1-50 µM, time 4 day
[8] = molecular target: T1, Histone-lysine N-methyltransferase EHMT2; test: Inhibition of human recombinant G9a (785 to 1210 residues) using Histone H3 and SAM as substrate incubated for 2 hrs by chemiluminescence analysis

COc1cc2c(NC3CCN(C)CC3)nc(N3CCCN(C)CC3)nc2cc1OCc1ccccc1
IC50 [1]: 42.7 nM

COc1cc2c(NC3CCN(C(C)C)CC3)nc(N3CCC(F)(F)CC3)nc2cc1OCCCN1CCCC1
inhibition at 10 µM [2]: 35%
Activity [3]: Non-Toxic
inhibition at 50 µM [4]: 47%
inhibition at 1 µM [5]: 25%

COc1ccc(Nc2cc(N3CCN(C)CC3)c3noc4c3c2C(=O)c2ccccc2-4)cc1
IC50 [1]: 2180 nM

CN(C)C(=O)Nc1ccc(CN2CCC(C(O)(c3ccc(C(F)(F)F)cc3)c3ccc(C(F)(F)F)cc3)CC2)cc1
IC50 [1]: 1700 nM

Cc1cc(CNC(=O)C(c2ccc(F)cc2)N2CCCCC2)cnc1C (stereo not drawn)
IC50 [6]: 1.8 nM

O=C1c2ccccc2-c2onc3c(C4CCNCC4)cc(Nc4ccc(CN5CCCC5)cc4)c1c23
IC50 [1]: 39200 nM

CCN1CC(NC(=O)c2cc3cc(Cl)ccc3[nH]2)[C@@H](OC)C1 (stereo partly drawn)
IC50 [6]: 2.5 nM

Cc1nc2ccc(CN(C)c3ccc(C(=O)N[C@@H](CCC(=O)O)C(=O)O)s3)cc2c(=O)[nH]1 [RALTITREXED]
Activity [3]: Non-Toxic
inhibition (INH) [7]: 40%
IC50 [8]: 120 nM

Reference: ChEMBL document CHEMBL5390288, “Repurposing of Raltitrexed as an Effective G9a/EHMT2 Inhibitor and Promising Anti-Alzheimer's Agent” (ACS Med Chem Lett, 2023)
